Measured values taken from patent US20070197523A1, “CALCIUM CHANNEL ANTAGONISTS” (ICAGEN, INC., priority 2005, published 2007).

Test system: T-type calcium channels
Experiment: T-type calcium channel inhibitory activity (fluorometric FLIPR Fluo-4 and whole cell patch clamp)
Assay type: cell-based, mammalian
Conditions: inhibition of T-type calcium channels; cells natively expressing or HEK-293 cells expressing recombinant channels
Protocol: T-type calcium channel inhibitory activity of some compounds of the invention was evaluated using both fluorometric as well as electrophysiological measurement methodologies, which are known to those skilled in the art. Fluorescence measurement of changes in intracellular calcium due to entry of calcium through T-type calcium channels was assessed using calcium sensitive fluorescent dyes Fluo-4 and Fluo-3. In brief, cells natively expressing T-type channels or HEK-293 cells transiently or stably expressing recombinant mammalian T-type calcium channels grown in 96-well tissue culture plates in DMEM/High glucose, Hyclone, Fetal Bovine Serum (10%), and 2 mM sodium pyruvate 2 mM (and for cells lines recombinantly expressing T-type calcium channels, G418 @ 400 mg/liter) were loaded with 4 μM Fluo-4 made up in Earls Balanced Salt Solution (EBSS). After incubation for 30 minutes at room temperature, cells were washed with low calcium (0.5 mM) EBSS to remove extracellular Fluo-4. Baseline fluorescence was measured in a FLIPR (FLuorescence Image Plate Reader) (Molecular Devices Inc) after applying test compounds at desired concentration for 5-10 minutes. The effect of test compound on calcium entry was assessed by monitoring changes in Fluo-4 fluorescence following an elevation of extracellular calcium concentration from 0.5 mM to 5 mM. […] Native cells natively expressing T-type channels or HEK-293 cells transiently or stably expressing recombinant mammalian T-type calcium channels were grown in DMEM/High glucose, Hyclone, Fetal Bovine Serum (10%), 2 mM sodium pyruvate 2 mM (and for cells lines recombinantly expressing T-type calcium channels, G418 @ 400 mg/liter) on glass coverslips in 35 mm tissue culture dishes. Experiments were performed by placing T-type calcium channels expressing cells in a recording chamber perfused with EBSS (which contains (in mM): 132 NaCl, 5.4 KCl, 1.8 CaCl2, 0.8 MgCl2, 10 Hepes, 5 glucose, pH 7.4 with NaOH) on the stage of an inverted microscope. Electrical currents were measured using the whole cell configuration of the patch clamp technique (Axopatch 200B, Axon Instruments (Molecular Devices) (see Hamill et al (1981) Pflugers Arch. 1981 391:85-100) using 2-2.5 MOhm resistance glass pipettes filled with 135 CsF, 5 CsCl, 5 NaCl, 5 EGTA, 10 HEPES, pH 7.3 with CsOH, Osmolarity ˜288 mOsm. Test compound effects were typically assessed under conditions in which approximately half of the available channels were inactivated either by an 8 second conditioning depolarization from a holding potential of −100 mV to a potential ranging from −70 mV to −60 mV or by continually holding the membrane potential at −70 mV. Test compounds were assessed for their ability to reduce the amplitude of the inward T-type calcium current elicited by a 100 ms step depolarization −20 or −30 mV.

IC50	Compound
0.001 to 1 µM	CCOc1cccc(S(=O)(=O)c2cnc(Nc3cc(OCCN(C)C)nc(C(F)(F)F)n3)s2)c1 [Example 28, [6-(2-Dimethylamino-ethoxy)-2-trifluormethyl-pyrimidin-4-yl]-[5-(3-Ethoxy-benzenesulfonyl)-thiazol-2-yl]-amine]
0.001 to 1 µM	CCOc1cccc(S(=O)(=O)c2cnc(Nc3cc(NCCN4CCCC4)nc(C(F)(F)F)n3)s2)c1 [Example 16, N-[5-(3-Ethoxy-benzenesulfonyl)-thiazol-2-yl]-N′-(2-pyrrolidin-1-yl-ethyl)-2-trifluoromethyl-pyrimidine-4,6-diamine]
0.001 to 1 µM	CCOc1cccc(S(=O)(=O)c2cnc(Nc3cc(OC4CCNC4)nc(C)n3)s2)c1 (centres unmarked) [Example 22, N-[5-(3-ethoxy-benzenesulfonyl)-thiazol-2-yl]-[2-methyl-6-(pyrrolidin-3-yloxy)pyrimidin-4-yl]-amine]
0.001 to 1 µM	CCOc1cccc(S(=O)(=O)c2cnc(Nc3nc(C)nc(OCCN(C)C)c3F)s2)c1 [Example 27, [6-(2-Dimethylamino-ethoxy)-5-fluoro-2-methyl-pyrimidn-4-yl]-[5-(3-ethoxy-benzenesulfonyl)-thiazol-2-yl]-amine]
1 to 10 µM	CCOc1cccc(S(=O)(=O)c2cnc(Nc3cc(C#CCOC)nc(C)n3)s2)c1 [Example 29, [5-(3-Ethoxy-benzenesulfonyl)-thiazol-2-yl]-[6-(3-methoxy-prop-1-ynyl)-2-methyl-pyrimidin-4-yl]-amine]
0.001 to 1 µM	CCOc1cccc(S(=O)(=O)c2cnc(Nc3nc(C)nc(OCCN4CCCC4)c3F)s2)c1 [Example 24, [5-(3-Ethoxy-benzenesulfonyl)-thiazol-2-yl]-[5-fluoro-2-methyl-6-(2-pyrrolidin-1-yl-ethoxy)-pyrimidin-4-yl]-amine]
0.001 to 1 µM	CCOc1cccc(S(=O)(=O)c2cnc(Nc3nc(C)nc(NCCN4CCCC4)c3F)s2)c1 [Example 12, N-[5-(3-Ethoxy-benzenesulfonyl)-thiazol-2-yl]-5-fluoro-2-methyl-N′-(2-pyrrolidin-1-yl-ethyl)-pyrimidine-4,6-diamine]
0.001 to 1 µM	CCOc1cccc(S(=O)(=O)c2cnc(Nc3cc(NCC(C)(C)N)nc(C(F)(F)F)n3)s2)c1 [Example 18, N-(2-Amino-2-methyl-propyl)-N′-[5-(3-ethoxy-benzenesulfonyl)-thiazol-2-yl]-2-trifluoromethyl-pyrimidine-4,6-diamine]
0.001 to 1 µM	CCOc1cccc(S(=O)(=O)c2cnc(Nc3cc(CCC(C)(C)N)nc(C)n3)s2)c1 [Example 36, [6-(3-Amino-3-methyl-butyl)-2-methyl-pyrimidin-4-yl]-[5-(3-ethoxy-benzenesulfonyl)-thiazol-2yl]-amine]
0.001 to 1 µM	CCOc1cccc(S(=O)(=O)c2cnc(Nc3cc(NCC(C)(C)N)nc(C)n3)s2)c1 [Example 6, N-(2-Amino-2-methyl-propyl)-N′-[5-(3-ethoxy-benzenesulfonyl)-thiazol-2-yl]-2-methyl-pyrimidine-4,6-diamine]
0.001 to 1 µM	CCOc1cccc(S(=O)(=O)c2cnc(Nc3cc(C#CC(C)(C)N(C)C(=O)OC(C)(C)C)nc(C)n3)s2)c1 [Example 31, (3-{6-[5-(3-Ethoxy-benzenesulfonyl)-thiazol-2ylamino]-2-methyl-pyrimidin-4-yl}-1,1-dimethyl-prop-2-ynyl)-methyl-carbamic acid tert-butyl ester]
0.001 to 1 µM	CCOc1cccc(S(=O)(=O)c2cnc(NC(=O)Cc3ccc(OC)c(OC)c3)s2)c1 [Example 1, 2-(3,4-Dimethoxy-phenyl)-N-[5-(3-ethoxy-benzenesulfonyl)-thiazol-2-yl]-acetamide]
0.001 to 1 µM	CCOc1cccc(S(=O)(=O)c2cnc(Nc3nc(C)nc(N(C)CCOC)c3F)s2)c1 [Example 13, N-[5-(3-ethoxy-benzenesulfonyl)-thiazol-2-yl]-5-fluoro-N′-(2-methoxy-ethyl)-2, N′-dimethyl-pyrimidine-4,6-diamine]
0.001 to 1 µM	CCOc1cccc(S(=O)(=O)c2cnc(Nc3cc(CCCOC)nc(C)n3)s2)c1 [Example 32, [5-(3-Ethoxy-benzenesulfonyl)-thiazol-2-yl]-[6-(3-methoxy-propyl)-2-methyl-pyrimidin-4-yl]-amine]
0.001 to 1 µM	CCOc1cccc(S(=O)(=O)c2cnc(N(CCCN3CCOCC3)c3nc(C)nc(NCCOC)c3F)s2)c1 [Example 15, N-[5-(3-ethoxy-benzenesulfonyl)-thiazol-2-yl]-5-fluoro-N′-(2-methoxy-ethyl)-2-methyl-N-(3′-morpholin-4-yl-propyl)-pyrimidine-4,6-diamine]
0.001 to 1 µM	CCOc1cccc(S(=O)(=O)c2cnc(Nc3cc(NCCN(C)C)nc(C)n3)s2)c1 [Example 8, N-(2-Dimethylamino-ethyl)-N′-[5-(3-ethoxy-benzenesulfonyl)-thiazol-2-yl]-2-methyl-pyrimidine-4,6-diamine]
10 to 1000 µM	CCOc1cccc(S(=O)(=O)c2cnc(Nc3nc(C)nc(OCCC4CCCC4)c3F)s2)c1 [Example 26, [6-(2-Cyclopentyl-ethoxy)-5-fluoro-2-methyl-pyrimidn-4-yl]-[5-(3-ethoxy-benzenesulfonyl)-thiazol-2-yl]-amine]
1 to 10 µM	CCOc1cccc(S(=O)(=O)c2cnc(Nc3cc(N(C)CCOC)ncn3)s2)c1 [Example 5, N-[5-(3-Ethoxy-benzenesulfonyl)-thiazol-2-yl]-N′-(2-methoxy-ethyl)-N′-methyl-pyrimidine-4,6-diamine]
0.001 to 1 µM	CCOc1cccc(S(=O)(=O)c2cnc(Nc3cc(NCCN(C)C)nc(C(F)(F)F)n3)s2)c1 [Example 19, N-(2-Dimethylamino-ethyl)-N′-[5-(3-ethoxy-benzenesulfonyl)-thiazol-2-yl]-2-trifluoromethyl-pyrimidine-4,6-diamine]
0.001 to 1 µM	CCOc1cccc(S(=O)(=O)c2cnc(Nc3cc(NCCOC)nc(C(F)(F)F)n3)s2)c1 [Example 17, N-[5-(3-ethoxy-benzenesulfonyl)-thiazol-2-yl]-N′-(2-methoxy-ethyl)-2-trifluoromethyl-pyrimidine-4,6-diamine]
1 to 10 µM	CCOc1cccc(S(=O)(=O)c2cnc(Nc3cc(NCCOC)nc(C)n3)s2)c1 [Example 7, N-[5-(3-ethoxy-benzenesulfonyl)-thiazol-2-yl]-N′-(2-methoxy-ethyl)-2-methyl-pyrimidine-4,6-diamine]
0.001 to 1 µM	CCOc1cccc(S(=O)(=O)c2cnc(Nc3cc(OC[C@H]4CCCN4)nc(C)n3)s2)c1 [Example 21, N-[5-(3-ethoxy-benzenesulfonyl)-thiazol-2-yl]-[2-methyl-((6R)-1-pyrrolidin-2-yl-methoxy)pyrimidin-4-yl]-amine]
0.001 to 1 µM	[5-(3-Ethoxy-benzenesulfonyl)-thiazol-2-yl]-[6-(3-methylamino)propyl)-2-methyl-pyrimidin-4-yl]-amine [Example 35]
0.001 to 1 µM	CCOc1cccc(S(=O)(=O)c2cnc(Nc3cc(NCCN4CCCC4)nc(C)n3)s2)c1 [Example 9, N-[5-(3-ethoxy-benzenesulfonyl)-thiazol-2-yl]-2-methyl-N′-(2-pyrrolidin-1-yl-ethyl)-pyrimidine-4,6-diamine]
0.001 to 1 µM	CCOc1cccc(S(=O)(=O)c2cnc(Nc3cc(OCCOC)nc(C)n3)s2)c1 [Example 23, N-[5-(3-ethoxy-benzenesulfonyl)-thiazol-2-yl]-[6-(2-methoxy-ethoxy)-2-methyl-pyrimidin-4-yl]-amine]
0.001 to 1 µM	CCOc1cccc(S(=O)(=O)c2cnc(Nc3cc(NCCN(C)C)ncn3)s2)c1 [Example 3, N-(2-Dimethylamino-ethyl)-N′-[5-(3-ethoxy-benzenesulfonyl)-thiazol-2-yl]-pyrimidine-4,6-diamine]
0.001 to 1 µM	CCOc1cccc(S(=O)(=O)c2cnc(Nc3nc(C)nc(OCCOC)c3F)s2)c1 [Example 25, N-[5-(3-ethoxy-benzenesulfonyl)-thiazol-2-yl]-[5-fluoro-6-(2-methoxy-ethoxy)-2-methyl-pyrimidin-4-yl]-amine]
0.001 to 1 µM	CCOc1cccc(S(=O)(=O)c2cnc(Nc3cc(OCCN4CCCC4)nc(C)n3)s2)c1 [Example 20, [5-(3-Ethoxy-benzenesulfonyl)-thiazol-2-yl]-[2-methyl-6-(2-pyrrolidin-1-yl-ethoxy)-pyrimidin-4-yl]-amine]
0.001 to 1 µM	CCOc1cccc(S(=O)(=O)c2cnc(Nc3nc(C)nc(NCC(C)(C)N)c3F)s2)c1 [Example 14, N-(2-Amino-2-methyl-propyl)-N′-[5-(3-ethoxy-benzenesulfonyl)-thiazol-2-yl]-5-fluoro-2-methyl-pyrimidine-4,6-diamine]
